Consider 7 molecules from PubChem BioAssay (NCI).

Among the test systems are A549 NSCLC; CAKI-1 renal; HCT-116 colon; NCI/ADR-RES ovarian; OVCAR-4 ovarian; OVCAR-5 ovarian; SK-OV-3 ovarian; UO-31 renal.
Assay in all cases: NCI anticancer screen, dose series, 48 h

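Protocol summary: plate cells (96-well), add compound at 5 concentrations, incubate 48 h, interpolate endpoints linearly. Here, GI50 denotes the concentration required for 50% inhibition of growth. TGI: total growth inhibition.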

In the case of `O=C(N/N=C/c1ccccc1O)c1ccccc1Nc1ccnc(C(F)(F)F)c1`, the GI50 with A549 NSCLC is 0.505 µM; in the assay with CAKI-1 renal, 0.337 µM; with HCT-116 colon, 0.414 µM; in the assay on NCI/ADR-RES ovarian, 0.433 µM; with OVCAR-4 ovarian, 0.271 µM; with OVCAR-5 ovarian, 4.34 µM. Besides, the GI50 is 0.649 µM in the assay on SK-OV-3 ovarian and 0.291 µM in the assay with UO-31 renal. The TGI with A549 NSCLC is greater than 30.9 µM; in the assay on CAKI-1 renal, 10.3 µM; in the assay with HCT-116 colon, 20.9 µM; in the assay on NCI/ADR-RES ovarian it was 30.1 µM; in the assay with OVCAR-4 ovarian it was greater than 100 µM; with OVCAR-5 ovarian it was greater than 92.3 µM. In addition, the figures for the TGI in the assay with SK-OV-3 ovarian and with UO-31 renal were 38 µM and 3.12 µM, respectively.
For the molecule `CCCn1cnc2c(SCc3ccccc3Cl)nc(N)nc21`, the GI50 in the assay on A549 NSCLC was 20.8 µM; in the assay on CAKI-1 renal, 6.43 µM; in the assay with HCT-116 colon, 5.2 µM; in the assay on NCI/ADR-RES ovarian, 14.8 µM; in the assay with OVCAR-4 ovarian, 28 µM; in the assay on OVCAR-5 ovarian, 25.7 µM. Further, the GI50 with SK-OV-3 ovarian was 14.9 µM; in the assay with UO-31 renal it was 10.8 µM. The TGI in the assay with A549 NSCLC was greater than 100 µM; with CAKI-1 renal, 44.1 µM; in the assay on HCT-116 colon it was 17.5 µM; in the assay with NCI/ADR-RES ovarian, 64.1 µM; in the assay with OVCAR-4 ovarian, greater than 100 µM; in the assay with OVCAR-5 ovarian it was 91.9 µM. Also, the TGI with SK-OV-3 ovarian was greater than 100 µM; in the assay on UO-31 renal, 63.5 µM.
Turning to `CCN(CC)c1ccc(/C=C/c2ccc3cc(C)ccc3[n+]2CC)cc1`, the GI50 in the assay with A549 NSCLC was 0.119 µM; in the assay with CAKI-1 renal, 2.03 µM; in the assay with HCT-116 colon it was 0.033 µM; with NCI/ADR-RES ovarian it was 5.69 µM; with OVCAR-4 ovarian, 0.0468 µM; with OVCAR-5 ovarian it was 0.309 µM. Further, the GI50 with SK-OV-3 ovarian is 0.141 µM; with UO-31 renal, 0.691 µM. The TGI was 14.6 µM in the assay on A549 NSCLC; 12 µM in the assay on CAKI-1 renal; 2.57 µM with HCT-116 colon; 47.4 µM in the assay with NCI/ADR-RES ovarian; 12.1 µM with OVCAR-4 ovarian; 16.8 µM with OVCAR-5 ovarian. Further, the TGI in the assay on SK-OV-3 ovarian stood at 0.732 µM; in the assay on UO-31 renal, 7.45 µM.
In the case of `N#CSc1c[nH]c2cccc(/C=C/C(=O)/C=C(/C=C/c3cccc4[nH]cc(SC#N)c34)OB(F)F)c12`, the GI50 in the assay on A549 NSCLC was 0.991 µM; in the assay with CAKI-1 renal it was 0.887 µM; in the assay on HCT-116 colon it was 0.244 µM; with NCI/ADR-RES ovarian, 4.3 µM; with OVCAR-4 ovarian, 0.338 µM; in the assay on OVCAR-5 ovarian it was 1.81 µM. The GI50 is 9.74 µM in the assay with SK-OV-3 ovarian and 0.391 µM in the assay on UO-31 renal. In addition, the TGI in the assay on A549 NSCLC is 10.2 µM; in the assay on CAKI-1 renal, 8.62 µM; in the assay on HCT-116 colon it was 0.742 µM; in the assay on NCI/ADR-RES ovarian it was greater than 100 µM; in the assay on OVCAR-4 ovarian, 3.95 µM; in the assay on OVCAR-5 ovarian, 6.91 µM. In addition, the figures for the TGI with SK-OV-3 ovarian and in the assay on UO-31 renal were 41.5 µM and 1.55 µM, respectively.
On to `CC[C@@]1(O)C(=O)OCc2c1cc1n(c2=O)Cc2c-1nc1cc3c(cc1c2CCl)OCO3`, for which the GI50 with A549 NSCLC was less than 0.01 µM; in the assay with CAKI-1 renal it was less than 0.01 µM; with HCT-116 colon, less than 0.01 µM; in the assay with NCI/ADR-RES ovarian it was less than 0.01 µM; with OVCAR-4 ovarian, 0.693 µM; with OVCAR-5 ovarian, 0.0593 µM. Also, the GI50 with SK-OV-3 ovarian and with UO-31 renal was less than 0.01 µM in each case. Further, the TGI turned out to be 3.25 µM in the assay with A549 NSCLC; 0.477 µM with CAKI-1 renal; 0.294 µM in the assay on HCT-116 colon; 0.133 µM with NCI/ADR-RES ovarian; 11.6 µM with OVCAR-4 ovarian; 2.12 µM in the assay on OVCAR-5 ovarian. The TGI with SK-OV-3 ovarian amounted to 1.07 µM; in the assay with UO-31 renal it was 0.756 µM.
Consider `Nc1cc(N)c2nc(-c3ccccc3)c(Nc3ccc(Cl)c(Cl)c3)nc2c1`, for which the GI50 in the assay with A549 NSCLC is 10.8 µM; in the assay with CAKI-1 renal, 13.5 µM; in the assay with HCT-116 colon, 10.6 µM; in the assay with NCI/ADR-RES ovarian it was 15.4 µM; in the assay on OVCAR-4 ovarian, 11.1 µM; with OVCAR-5 ovarian, 28 µM. The GI50 with SK-OV-3 ovarian was 13.7 µM; with UO-31 renal, 11.1 µM. Also, the TGI with A549 NSCLC was found to be 34.7 µM; in the assay with CAKI-1 renal, 29.6 µM; with HCT-116 colon, 53 µM; with NCI/ADR-RES ovarian, 55.3 µM; in the assay on OVCAR-4 ovarian, 47.8 µM; in the assay with OVCAR-5 ovarian, 48.7 µM. The TGI with SK-OV-3 ovarian is 31.3 µM; in the assay with UO-31 renal it was 36.3 µM.
For the molecule `C[C@@H]1OC(O)[C@@H](F)[C@H](O)[C@@H]1O` (some centres not stated), the GI50 with A549 NSCLC, in the assay with CAKI-1 renal, in the assay with HCT-116 colon, in the assay with NCI/ADR-RES ovarian, in the assay with OVCAR-4 ovarian and with OVCAR-5 ovarian was greater than 100 µM in each case. The GI50 with SK-OV-3 ovarian and in the assay on UO-31 renal was greater than 100 µM throughout. In addition, the TGI in the assay on A549 NSCLC, in the assay on CAKI-1 renal, with HCT-116 colon, with NCI/ADR-RES ovarian, with OVCAR-4 ovarian and with OVCAR-5 ovarian was greater than 100 µM each time. Moreover, the TGI in the assay on SK-OV-3 ovarian and in the assay with UO-31 renal was greater than 100 µM throughout.
